# According to patent publication US20250243176A1, “(S)-1-(1-ACRYLOYLPIPERIDIN-3-YL)-2-FLUORO-5,6,7,8,9,10-HEXAHYDROCYCLO HEPTA[B]INDOLE-4-CARBOXAMIDE, AND RELATED CRYSTALLINE FORMS, COMPOSITIONS, AND METHODS THEREOF” (GB005, Inc., priority 2021, published 2025):
# Like-named read-outs stand apart in the source and are kept apart here.
# Experiments:
# BTK = BTK inactivation kinetics in peripheral and CNS tissue
# Source text: (S)-1-(1-acryloylpiperidin-3-yl)-2-fluoro-5,6,7,8,9,10-hexahydrocyclohepta[b]indole-4-carboxamide, hereinafter referred to as “Compound 1”, is an orally available, selective, potent inhibitor of Bruton's tyrosine kinase (BTK), thereby providing potential treatment options in BTK-driven diseases. The potency of Compound 1 for BTK inhibition is in the nM range in both cell-free enzymatic and whole blood functional assays.
# [1] = Phase 1 CSF penetrance (CSF/unbound plasma concentration); type: in vivo; conditions: both sexes, human, oral; for Kp at 2 h: CSF / unbound plasma
# Protocol: Safety is assessed throughout the study and PK and PD are characterized using serial blood samples collected up to 48 hours post-dose for Compound 1 plasma concentrations, BTK target occupancy (TO) and target engagement (TE). Cerebrospinal fluid (CSF) samples are collected at 2 hours post-dose to characterize the relationship between Compound 1 plasma concentrations and CNS penetrance (CSF/Unbound plasma concentration). Compound 1 PK parameters (e.g., AUClast, AUCinf, Cmax, Tmax, t1/2) are estimated by standard noncompartmental methods.
# Mean Compound 1 CSF:unbound plasma concentration ratios approximated 1 indicating unimpeded access of unbound drug in plasma into the CNS (see, e.g., Table 46, reported as Mean (% coefficient of variation), and FIG. 26 showing CSF to unbound plasma ratio by dose).
# [2] = Phase 1 multiple ascending dose plasma pharmacokinetics; type: in vivo, human; conditions: for Tmax / half-life / Cmax / AUC(0-inf): fed; for half-life / Cmax / AUC(0-inf): human, plasma, oral; for half-life: 15 mg; for AUC(0-inf): read-out: AUC0-inf or tau
# Source text: Part A is a randomized, double-blind, placebo-controlled, single- and -multiple-dose study with staggered dose escalation, administered in the fed state (standard moderate-fat meal). Part A consists of […] (up to 7 single-ascending dose [SAD] cohorts [Cohorts 1-6 & 14], and up to 3 multiple ascending dose [MAD] cohorts [Cohorts 7-9]). Subjects are randomized in a 3:1 ratio per cohort to receive either: Compound 1 Formulation A (N=6 for Cohorts 1-4 and N=9 for Cohorts 5-9 & 14); or placebo (PBO; N=2 for Cohorts 1-4 and N=3 for Cohorts 5-9 & 14).
# • Cohorts 7 and 8: Day 1, all subjects begin once-daily multiple dose administration of Formulation A Compound 1 or placebo for 10 days. • Cohort 9: Day −1, all subjects receive placebo. • Day 1, all subjects begin once-daily multiple dose administration of • Compound 1 or placebo for 10 days.
# Results: Preliminary pharmacokinetic results from 1 completed MAD cohort are presented, including 12 subjects receiving 15 mg once daily for 10 days randomized in a 3:1 ratio to receive Compound 1 or placebo) in a fed state (moderate-fat meal). […] Preliminary PK parameters are presented in Table 47 (all pharmacokinetic parameters of […] are reported as Mean (% coefficient of variation), except for Tmax and t1/2, which are reported as Median (Min, Max), and in FIG. 27 showing single and multiple dose plasma profiles (Mean±SD).
# CYP3A = assay: Phase 1 drug-drug interaction with itraconazole (strong CYP3A inhibitor); type: in vivo, human; conditions: for AUC(0-inf) / Cmax / T1/2 / Tmax: Cohort 12, 2 mg single dose; for AUC(0-inf) / Cmax: mean; for T1/2 / Tmax: median
# Protocol: Cohort 12 is an open-label, fixed-sequence, multiple-dose DDI study with itraconazole (ITZ). Subjects receive a single oral dose of Compound 1 administered in the fasted state on Day 1. Beginning on Day 3 and continuing through to Day 6, subjects receive itraconazole 200 mg once daily (QD) in a fasted state. On Day 5, subjects receive Compound 1 administered in the fasted state, 1 hour after administration of itraconazole.
# Results. Preliminary pharmacokinetic results evaluating the drug-drug interaction effect of a strong CYP3A inhibitor (itraconazole) on Compound 1 PK are presented, including 9 subjects from Cohort 12 receiving single doses of 2 mg Compound 1 under fasting conditions alone or in combination with once daily itraconazole 200 mg. Preliminary PK parameters are presented in Table 49 (all pharmacokinetic parameters of Table 49 are reported as Mean (% coefficient of variation), except for Tmax and t1/2, which are reported as Median (Min, Max)), and in FIG. 29 presenting the mean (SD) plasma concentration-time profiles of Compound 1.
# [3] = pKa determination, Sirius T3 titrator (Form III); type: physicochemical; conditions: titrations at 25° C., acidic and basic sites
# Protocol: In each of the following studies (Examples 6-10), the starting material was Compound 1 (free form, not salt) Form III. The material was a light yellow solid, comprising non-hygroscopic irregular shaped crystal with aggregation. The same analytical methods as described in Example 1 were employed.
# pKa was assessed using Sirius T3 titrator. The acidic and basic sites were very weak, and undetectable by Sirius T3.
# [4] = both sexes, Cohort 7, 15 mg once daily, Day 1, mean
# [5] = Cohort 7, 15 mg once daily, Day 10, mean
# [6] = 2 mg Compound 1, itraconazole 200 mg once daily, fasting
# [7] = fasted, Day 5 (+ITZ 200 mg once daily)
# [8] = single 2 mg dose, fasting, alone or with itraconazole 200 mg once daily
smiles,measurement,setting,value
"C=CC(=O)N1CCC[C@@H](c2c(F)cc(C(N)=O)c3[nH]c4c(c23)CCCCC4)C1 [Compound 1, (S)-1-(1-acryloylpiperidin-3-yl)-2-fluoro-5,6,7,8,9,10-hexahydrocyclohepta[b]indole-4-carboxamide]",BTK inactivation kinetics,BTK,rapid
same,Kp at 2 h,"[1]; Cohort 2, 15 mg single dose, 2 hr post-dose, mean, read-out: CSF/Unbound Plasma",0.95
same,Kp at 2 h,"[1]; Cohort 3, 45 mg single dose, 2 hr post-dose, mean, read-out: CSF/Unbound Plasma",0.95
same,Kp at 2 h,"[1]; healthy subjects, CSF samples at 2 hours post-dose, read-out: Mean CSF:unbound plasma concentration ratio",~1
same,concentration at 2 h,"[1]; CSF, Cohort 2, 15 mg single dose, mean, read-out: CSF Conc (2 hr)",0.9 ng/mL
same,concentration at 2 h,"[1]; CSF, Cohort 3, 45 mg single dose, mean, read-out: CSF Conc (2 hr)",2.07 ng/mL
same,concentration at 2 h,"[1]; plasma (unbound), Cohort 2, 15 mg single dose, mean, read-out: Unbound Plasma Conc @2 hr",0.83 ng/mL
same,concentration at 2 h,"[1]; plasma (unbound), Cohort 3, 45 mg single dose, mean, read-out: Unbound Plasma Conc @2 hr",2.33 ng/mL
same,concentration at 2 h,"[1]; plasma, Cohort 2, 15 mg single dose, mean, read-out: Plasma Conc @2 hr",63.2 ng/mL
same,concentration at 2 h,"[1]; plasma, Cohort 3, 45 mg single dose, mean, read-out: Plasma Conc @2 hr",159 ng/mL
same,accumulation upon once-daily dosing,[2]; 15 mg once daily for 10 days,Minimal to no accumulation
same,Tmax,"[2]; Cohort 7, 15 mg once daily, Day 1, median",1.5 br
same,Tmax,"[2]; Cohort 7, 15 mg once daily, Day 10, median",1.5 br
same,half-life,"[2]; both sexes, MAD cohort, 15 mg once daily for 10 days, read-out: terminal half-life (converted)",~3 h
same,Cmax,[2]; [4],85.8 ng/mL
same,AUC(0-inf),[2]; [4],312 ng·h/mL
same,half-life,"[2]; Cohort 7, 15 mg once daily, Day 1, median, read-out: T1/2 (converted)",3.19 h
same,half-life,"[2]; Cohort 7, 15 mg once daily, Day 10, median, read-out: T1/2 (converted)",3.37 h
same,Cmax,[2]; [5],102 ng/mL
same,AUC(0-inf),[2]; [5],353 ng·h/mL
same,increase of AUCinf on coadministration of itraconazole,CYP3A; [6],15%
same,increase of Cmax on coadministration of itraconazole,CYP3A; [6],23%
same,AUC(0-inf),"CYP3A; fasted, Day 1 (Alone)",46.7 ng·h/mL
same,Cmax,"CYP3A; fasted, Day 1 (Alone)",21.2 ng/mL
same,T1/2,"CYP3A; fasted, Day 1 (Alone)",3.13 h
same,Tmax,"CYP3A; fasted, Day 1 (Alone)",1.0 h
same,AUC(0-inf),CYP3A; [7],54.4 ng·h/mL
same,Cmax,CYP3A; [7],26.3 ng/mL
same,T1/2,CYP3A; [7],3.14 h
same,Tmax,CYP3A; [7],1.5 h
same,"AUC0-inf, % GMR ITZ/Alone","CYP3A; Cohort 12, 2 mg, fasted",115%
same,"Cmax, % GMR ITZ/Alone","CYP3A; Cohort 12, 2 mg, fasted",123%
same,effect of a strong CYP3A inhibitor on PK,CYP3A; coadministration of itraconazole,no clinically significant effect
same,mean plasma Tmax,CYP3A; [8],1.0 to 1.5 h
same,terminal half-life,CYP3A; [8],approximately 3 hours
same,pKa,[3],undetectable
